Laboratory results published in US8377967B2, “Piperidine derivative” (Nippon Zoki Pharmaceutical Co., Ltd., priority 2008, dated 2013).

Assays:
[1] = biological target: human histamine H1 receptor (Homo sapiens, UniProt P35367); assay: In vitro human histamine H1 receptor binding experiment ([3H]pyrilamine); settings: HEK293A cells stably expressing human histamine H1 receptor, [3H]pyrilamine 3 nmol/L, room temperature 60 minutes
Summary of the method: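 HEK293A cells stably expressing human H1 receptor (3×10^5 cells/well) incubated 60 min at room temperature with test substance and 3 nmol/L [3H]pyrilamine in 50 mmol/L Tris-HCl pH 7.5, 0.1% BSA. Filtration and scintillation counting; nonspecific binding with 30 μmol/L pyrilamine.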

cerebral H1 receptor = biological target: T1, cerebral H1 receptor (Mus musculus, UniProt P70174); assay: Murine cerebral H1 receptor occupying content (ex vivo); assay type: in vivo; settings: for ED50: ICR male mouse, oral administration, brain excised after 1 hour, 3H-pyrilamine binding in brain homogenate, larger = lower brain transfer, read-out: ID50 (the source's name); for ID50 (mg/kg)/ ED50 (mg/kg): ID50 of cerebral receptor binding test (Table 20) divided by ED50 of vascular hyperpermeability test (Table 19)
T1 construct: the entire brain, except for cerebellum and medulla oblongatae, was rapidly excised; from tissue; host or cells: brain homogenate (without cerebellum and medulla oblongata) of orally dosed ICR male mice
T1 sequence (P70174 whole entry): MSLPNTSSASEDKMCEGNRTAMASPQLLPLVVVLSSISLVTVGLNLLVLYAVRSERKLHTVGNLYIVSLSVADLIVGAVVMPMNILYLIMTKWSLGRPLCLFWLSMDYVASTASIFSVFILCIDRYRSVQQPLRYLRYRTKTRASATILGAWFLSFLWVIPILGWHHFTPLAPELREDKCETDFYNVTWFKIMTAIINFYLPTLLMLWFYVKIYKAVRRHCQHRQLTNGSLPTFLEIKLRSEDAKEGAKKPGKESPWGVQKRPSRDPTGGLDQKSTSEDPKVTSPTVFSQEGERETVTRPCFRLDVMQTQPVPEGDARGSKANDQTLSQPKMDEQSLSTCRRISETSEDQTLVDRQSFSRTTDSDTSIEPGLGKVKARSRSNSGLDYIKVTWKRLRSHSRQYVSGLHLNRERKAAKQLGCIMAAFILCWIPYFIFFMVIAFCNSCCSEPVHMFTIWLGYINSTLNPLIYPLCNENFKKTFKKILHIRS
Procedure: A 6-week-old ICR male mouse was previously fed for one week or more by allowing the mouse to take a solid feed and tap water ad libitum, under the environment setting of a temperature of 22° C., humidity of 55% and an artificial illumination of 12 hours a day, and the mouse was fasted overnight to be used for the experiment. A substance to be tested was dissolved with water for injection or suspended in 0.5% carboxymethyl cellulose solution, and the solution or suspension was orally administered to the mouse (dose volume: 0.1 mL/10 g body weight). After 1 hour from the oral administration, the mouse was decapitated, and the entire brain, except for cerebellum and medulla oblongatae, was rapidly excised. The excised brain tissue was homogenized with Polytron (manufactured by Kinematica) in an ice-cooled 50 mmol/L phosphate buffered saline (pH 7.4, 100 mg/1.9 mL).
To a test tube for reaction (TPX-Tube) were added 180 μL of the brain homogenate, and 10 μL of ^3H-pyrilamine solution (final concentration: 2 nmol/L) and 10 μL of a non-labeled pyrilamine solution (final concentration: 200 μmol/L) or a 50 mmol/L phosphate buffered saline, and the mixture was incubated at room temperature for 45 minutes, and 2.0 mL of an ice-cooled, 50 mmol/L phosphate buffered saline was then added thereto to stop the reaction. The reaction mixture was filtered with a GF/B filter (manufactured by […]), and the […] was placed in a vial and dried overnight at 60 degrees. After drying, 10 mL of a scintillator (AL-1, toluene-based, manufactured by DOJINDO LABORATORIES) was added to the product, and the disintegration per minute (dpm) was measured with a liquid scintillation counter (manufactured by Packard, U.S.A., TRI-CARB 2700TR) (5 minutes/vial).

[2] = system: histamine-induced vascular hyperpermeability reaction; assay: Rat histamine-induced vascular hyperpermeability reaction (in vivo antihistamine action); settings: SD male rat, oral administration 1 hour before intracutaneous histamine, leaked Evans Blue pigment
Procedure: An SD male rat (SPF) of 180 g in weight was previously fed for one week or more by allowing the rat to take a solid feed and tap water ad libitum, under the environment setting of a temperature of 22° C., humidity of 55% and an artificial illumination of 12 hours a day (light phase 8 am to 8 pm), and the rat was fasted overnight to be used for the experiment. Histamine•dihydrochloride (hereinafter referred to as histamine) and Evans Blue were used by dissolving each in physiological saline upon use. A substance to be tested was dissolved in water for injection or suspended in 0.5% carboxymethyl cellulose sodium, and the rat was orally administered with the solution or suspension (dose volume: 5 mL/kg body weight). After 1 hour from the administration, the physiological saline and the histamine solution were each intracutaneously injected to two locations (20 μg/0.05 ml/location) each on a back part of the rat of which hair was sheared with an electric clipper while anesthetizing with an ether. A 0.5% Evans Blue-containing physiological saline was injected intravenously to the tail of the rat (1 mL/200 g body weight) immediately before the intracutaneous injection of the histamine.
After 30 minutes, the animal was decapitated, and allowed to bleed lethally, and the skin was removed to measure an amount of leaked pigment in the blue-stained portion. The measurement of the amount of leaked pigment was carried out as follows. Skins of the pigment leaking site were cut out at two locations, 1 mL of a 2 mol/L aqueous potassium hydroxide solution was added thereto in a test tube, and the test tube was allowed to stand overnight at 37° C. to dissolve. Thereafter, 6 mL of a 1:3 mixed solution of 0.67 mol/L phosphoric acid and acetone was added to the solution, and the mixture was vigorously shaken for 10 minutes. Thereafter, the mixture was filtered, and the absorbance of the filtrate at 620 nm was measured. The absorbance obtained from the two locations of the sites injected with physiological saline, as blank value, was used for a compensation. The amount of leaked pigment was calculated from the calibration curve of Evans Blue at 620 nm.

human histamine H1 receptor, sequence (P35367 whole entry): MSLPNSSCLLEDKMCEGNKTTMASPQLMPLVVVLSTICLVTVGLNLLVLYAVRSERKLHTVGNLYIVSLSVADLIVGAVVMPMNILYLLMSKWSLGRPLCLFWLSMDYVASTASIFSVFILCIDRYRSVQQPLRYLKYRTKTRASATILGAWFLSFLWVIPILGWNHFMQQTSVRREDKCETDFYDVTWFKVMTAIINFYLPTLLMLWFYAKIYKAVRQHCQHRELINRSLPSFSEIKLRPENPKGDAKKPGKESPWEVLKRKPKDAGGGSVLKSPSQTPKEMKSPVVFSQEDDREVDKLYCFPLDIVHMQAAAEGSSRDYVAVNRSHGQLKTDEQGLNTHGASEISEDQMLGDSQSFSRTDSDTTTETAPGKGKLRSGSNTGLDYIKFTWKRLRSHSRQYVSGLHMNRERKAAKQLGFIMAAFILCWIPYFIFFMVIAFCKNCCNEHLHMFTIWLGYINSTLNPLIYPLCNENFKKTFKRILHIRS

IC50 [1] [nM]	ED50 (cerebral H1 receptor) [mg/kg]	ID50 (mg/kg)/ ED50 (mg/kg) (cerebral H1 receptor)	Compound	ED50 [2] [mg/kg]
26.8	5.6	31.1	CN1CCC(=C2c3ccccc3CCc3cc(C=CC(=O)O)sc32)CC1 [Compound 15, 3-[4-(1-Methylpiperidin-4-ylidene)-9,10-dihydro-4H-3-thiabenzo[f]azulen-2-yl]acrylic acid]	0.18
52.8	55.1	33.8	CN1CCC(=C2c3ccccc3CCc3sc(C(=O)NCCO)cc32)CC1 [Compound 27, N-(2-Hydroxyethyl) [4-(1-methylpiperidin-4-ylidene)-9,10-dihydro-4H-1-thiabenzo[f]azulen-2-yl]carboxamide]	1.63
32.5	33.9	33.9	CN1CCC(=C2c3ccccc3CCc3sc(CNC(N)=O)cc32)CC1 [Compound 49, 2-Ureidomethyl-4-(1-methylpiperidin-4-ylidene)-9,10-dihydro-4H-1-thiabenzo[f]azulene]	~1
–	37.5	220.6	CC(C)N1CCC(=C2c3cc(CC(=O)O)ccc3OCc3ccsc32)CC1 [Compound 132, [4-(1-Isopropylpiperidin-4-ylidene)-4,10-dihydro-9-oxa-3-thiabenzo[f]azulen-6-yl]acetic acid]	0.17
–	> 200	>89.3	O=C(O)Cc1ccc2c(c1)C(=C1CCN(CCCO)CC1)c1sccc1CO2 [Compound 139, {4-[1-(3-Hydroxypropyl)piperidin-4-ylidene]-4,10-dihydro-9-oxa-3-thiabenzo[f]azulen-6-yl}acetic acid]	2.24
–	66.6	199.4	CCN1CCC(=C2c3ccccc3CCc3sc(C(C)(C)C(=O)O)cc32)CC1 [Compound 155, 2-[4-(1-Ethylpiperidin-4-ylidene)-9,10-dihydro-4H-1-thiabenzo[f]azulen-2-yl]-2-methylpropionic acid]	0.334
–	10.4	39.4	CC(=O)CN1CCC(=C2c3cc(CC(=O)O)ccc3OCc3ccsc32)CC1 [Compound 168, {4-[1-(2-Oxopropyl)piperidin-4-ylidene]-4,10-dihydro-9-oxa-3-thiabenzo[f]azulen-6-yl}acetic acid]	0.264
–	70.3	114.5	CC(=O)CCCN1CCC(=C2c3cc(CC(=O)O)ccc3OCc3ccsc32)CC1 [Compound 170, {4-[1-(4-Oxopentyl)piperidin-4-ylidene]-4,10-dihydro-9-oxa-3-thiabenzo[f]azulen-6-yl}acetic acid]	0.614
–	23	76.7	CC(=O)CCCN1CCC(=C2c3cc(CCCC(=O)O)ccc3OCc3ccsc32)CC1 [Compound 188, 4-{4-[1-(4-Oxopentyl)piperidin-4-ylidene]-4,10-dihydro-9-oxa-3-thiabenzo[f]azulen-6-yl}butyric acid]	~0.3
–	63.8	204.5	CC(=O)CCN1CCC(=C2c3cc(CC(=O)O)ccc3OCc3ccsc32)CC1 [Compound 192, {4-[1-(3-Oxobutyl)piperidin-4-ylidene]-4,10-dihydro-9-oxa-3-thiabenzo[f]azulen-6-yl}acetic acid]	0.312
–	4.5	450.0	CSCCCN1CCC(=C2c3cc(CC(=O)O)ccc3OCc3ccsc32)CC1 [Compound 199, {4-[1-(3-Methylsulfanylpropyl)piperidin-4-ylidene]-4,10-dihydro-9-oxa-3-thiabenzo[f]azulen-6-yl}acetic acid]	~0.01
–	> 200	>476.2	O=C(O)CCc1cc2c(s1)C=Cc1ccccc1C2=C1CCNCC1 [Compound 209, 3-(4-Piperidin-4-ylidene-4H-1-thiabenzo[f]azulen-2-yl)propionic acid]	0.42

Compound	IC50 [1] [nM]	ED50 (cerebral H1 receptor) [mg/kg]	ID50 (mg/kg)/ ED50 (mg/kg) (cerebral H1 receptor)	ED50 [2] [mg/kg]
CN1CCC(=C2c3ccccc3OCc3cc(CC(=O)O)sc32)CC1.Cl [Compound 58, [4-(1-Methylpiperidin-4-ylidene)-4,10-dihydro-9-oxa-3-thiabenzo[f]azulen-2-yl]acetic acid hydrochloride]	69.3	205	263.1	0.78
COC(=O)Cc1ccc2c(c1)C(=C1CCN(CCO)CC1)c1sccc1CO2.Cl [Compound 118, Methyl {4-[1-(2-hydroxyethyl)piperidin-4-ylidene]-4,10-dihydro-9-oxa-3-thiabenzo[f]azulen-6-yl}acetate hydrochloride]	23.6	24.3	50.6	0.48
COC(=O)CCCc1ccc2c(c1)C(=C1CCNCC1)c1sccc1CO2.Cl [Compound 135, Methyl 4-(4-piperidin-4-ylidene-4,10-dihydro-9-oxa-3-thiabenzo[f]azulen-6-yl)butyrate hydrochloride]	–	> 200	>85.8	2.33
CCCOC(=O)Cc1ccc2c(c1)C(=C1CCNCC1)c1sccc1CO2.Cl [Compound 137, Propyl (4-piperidin-4-ylidene-4,10-dihydro-9-oxa-3-thiabenzo[f]azulen-6-yl)acetate hydrochloride]	–	> 200	>833.3	0.24
CCOC(=O)C(C)(C)c1cc2c(s1)CCc1ccccc1C2=C1CCNCC1.Cl [Compound 152, Ethyl 2-methyl-2-(4-piperidin-4-ylidene-9,10-dihydro-4H-1-thiabenzo[f]azulen-2-yl)propionate hydrochloride]	–	199	133.8	1.49
CC(C)(C(=O)O)c1cc2c(s1)CCc1ccccc1C2=C1CCNCC1.Cl [Compound 153, 2-Methyl-2-(4-piperidin-4-ylidene-9,10-dihydro-4H-1-thiabenzo[f]azulen-2-yl)propionic acid hydrochloride]	–	> 200	>76.6	2.61
COC(=O)Cc1ccc2c(c1)C(=C1CCN(CC(C)=O)CC1)c1sccc1CO2.Cl [Compound 167, Methyl {4-[1-(2-oxopropyl)piperidin-4-ylidene]-4,10-dihydro-9-oxa-3-thiabenzo[f]azulen-6-yl}acetate hydrochloride]	–	35.1	180.9	0.194
CC(OC(=O)Cc1ccc2c(c1)C(=C1CCNCC1)c1sccc1CO2)OC(=O)OC1CCCCC1.Cl (centres unmarked) [Compound 180, 1-Cyclohexyloxycarbonyloxyethyl (4-piperidin-4-ylidene-4,10-dihydro-9-oxa-3-thiabenzo[f]azulen-6-yl)acetate hydrochloride]	–	> 200	>129.0	1.55
CN1CCC(=C2c3cc(SC(C)(C)C(=O)O)ccc3OCc3ccsc32)CC1.Cl [Compound 190, 2-Methyl-2-[4-(1-methylpiperidin-4-ylidene)-4,10-dihydro-9-oxa-3-thiabenzo[f]azulen-6-ylsulfanyl]propionic acid hydrochloride]	–	73.2	174.7	0.419
